Source: article PMC6331934, “Study of the Biotransformation of Tongmai Formula by Human Intestinal Flora and Its Intestinal Permeability across the Caco-2 Cell Monolayer” (Molecules, 2015)

Experiments:
[1] = Bidirectional transport across the Caco-2 cell monolayer (Papp, efflux ratio, mass balance); conditions: human; for recovery at 90 min, 50 μM: mass balance, total amount in AP and BL sides, incubation up to 90 min, n = 3
[2] = tested on: human intestinal flora (HIF); experiment: Time course of TMF constituents during anaerobic biotransformation by human intestinal flora; type: in vitro ADME; conditions: for Increase of content (fold): 60 h incubation by HIF; for Reduction of content (fold): after 60 h incubation by HIF
Method: (§1) The general anaerobic medium (GAM) of HIF was prepared as follows: 10.0 g of tryptone, 10.0 g of proteose peptone, 13.5 g of digested serum powder, 5.0 g of yeast extract, 2.2 g of beef extract, 1.2 g of beef liver extract powder, 3.0 g of glucose, 2.5 g of KH2PO4, 3.0 g of NaCl, 5.0 g of soluble starch, 0.3 g of L-cysteine hydrochloride, and 0.3 g of sodium thioglycolate were dissolved in H2O. Adjust the pH of GAM solution to 7.1–7.2 with 1M NaOH aqueous solution and supply the total volume to 1 L. Ten grams of fresh feces obtained from a healthy volunteer, who had not taken any medicine in three months, were immediately homogenized and suspended in GAM (50 mL) solution. The HIF was undertaken according to the previous paper of our laboratory. Preparation of the biotransformation products of TMF by HIF was followed by the method of previous research.
(§2) A biotransformation system consisting of HIF (10 mL) and TMF (10 mg) was anaerobically incubated at 37 °C. All experiments were carried out in sextuplicate at each time point. The biotransformation reaction was stopped at 0.5, 1, 2, 4, 8, 12, 24, 36, 48, 60 h. The biotransformation solution was extracted with n-butanol (each 10 mL) three times. The combined n-butanol layer was evaporated to dryness under a gentle stream of nitrogen. MeOH (400 μL) was used to dissolve the residue which acted as a deproteinization agent. The resultant solution was vortex-mixed for 1 min and centrifuged at 16,000 g for 10 min at 4 °C. The supernatant was collected and filtered through a 0.22 μm filter as the test solution. The blank sample was prepared using TMF-free medium solution with the same processing steps. […] The column temperature was set at 30 °C and detection wavelength was set at 254 nm.

[3] = tested on: RAW 264.7 murine macrophages cells; design: method as in PMID 22644850; conditions: RAW 264.7 cells; compared with daidzin; cited from earlier work
in vitro = conditions: human
Caco-2 cell monolayer = experiment: Bidirectional transport across the Caco-2 cell monolayer (Papp, efflux ratio, mass balance); conditions: Caco-2 monolayer; classes after ref 18
[4] = Time course of TMF constituents during anaerobic biotransformation by human intestinal flora; type: in vitro ADME; conditions: male, human, human intestinal flora (faecal suspension in GAM); incubation by HIF; read-out: Time of maximum concentration
Method: as §1, §2

[5] = Caco-2, pH 7.4, Level (order of magnitude) of Papp, Caco-2 monolayer
[6] = Caco-2, pH 7.4, Total Recovery (%) AP→BL
[7] = Caco-2, pH 7.4, Total Recovery (%) BL→AP
[8] = Caco-2, pH 7.4, Absorption class by Papp, Caco-2 monolayer, classes after ref 18

| SMILES | Papp A→B at 90 min, 50 μM ([1]; Caco-2, pH 7.4) | Papp B→A at 90 min, 50 μM ([1]; Caco-2, pH 7.4) | efflux ratio at 1 h, 50 μM ([1]; Caco-2, pH 7.4) | Papp at 1 h, 50 μM [1, 5] | recovery at 90 min, 50 μM [1, 6] | recovery at 90 min, 50 μM [1, 7] | other results |
| --- | --- | --- | --- | --- | --- | --- | --- |
| CC(C)NCC(O)COc1cccc2ccccc12 (stereo not drawn) [propranolol, reference compound] |  |  |  |  |  |  | Papp A→B at 1 h ([1]; Caco-2, pH 7.4): 33.7 ×10⁻⁶ cm/s |
| O=C1C=C(c2ccc(O)cc2O)[C@@H](Cc2ccc(O)cc2)O1 [Compound 9, puerol A] | 6.27 ± 0.81 ×10⁻⁶ cm/s | 8.3 ± 1.6 ×10⁻⁶ cm/s | 1.32 | ~1 ×10⁻⁶ cm/s | 86% | 90.9% | Increase of content (fold) [2]: more than 3 fold |
| O=Cc1ccc(O)c(O)c1 [Compound 2, protocatechuic aldehyde] |  |  |  |  |  |  | Content remaining ([2]; at 60 h incubation by HIF): ~50% |
| O=c1c(-c2ccc(O)c(O)c2)coc2c([C@@H]3O[C@H](CO[C@@H]4OC[C@](O)(CO)[C@H]4O)[C@@H](O)[C@H](O)[C@H]3O)c(O)ccc12 [Compound 3, 3′-hydroxymirificin] | 0.97 ± 0.01 ×10⁻⁶ cm/s | 0.53 ± 0.01 ×10⁻⁶ cm/s | 0.55 |  | 101% | 98.3% | Content remaining ([2]; early stage (4 h) of incubation by HIF): ~25% |
| O=c1c(-c2ccc(O)cc2)coc2c([C@@H]3O[C@H](CO[C@@H]4OC[C@](O)(CO)[C@H]4O)[C@@H](O)[C@H](O)[C@H]3O)c(O)ccc12 [Compound 6, mirificin] | 0.29 ± 0.01 ×10⁻⁶ cm/s | 0.23 ± 0.01 ×10⁻⁶ cm/s | 0.79 |  | 99.4% | 98.5% | Reduction of content (fold) [2]: 10 fold |
| O=c1c(-c2ccc(O)cc2)coc2cc(O)cc(O)c12 [Compound 11, genistein] | 32.4 ± 3.86 ×10⁻⁶ cm/s | 37.7 ± 1.93 ×10⁻⁶ cm/s | 1.16 | ~10 ×10⁻⁶ cm/s | 86.7% | 75.7% | Papp at 1 h, 50 μM [1, 8]: > 10 ×10⁻⁶ cm/s; Increase of content (fold) [2]: more than 3 fold |
| O=c1c(-c2ccc(O)cc2)coc2cc(O)ccc12 [Compound 10, daidzein] |  |  |  |  |  |  | Inhibitory effect on lipopolysaccharide-induced nitric oxide production [3]: stronger than that of daidzin; Papp A→B at 90 min, 50 μM (in vitro; Caco-2, pH 7.4): 25.5 ± 0.34 ×10⁻⁶ cm/s; Papp B→A at 90 min, 50 μM (in vitro; Caco-2, pH 7.4): 26.22 ± 0.01 ×10⁻⁶ cm/s; Papp at 1 h, 50 μM (in vitro; Caco-2, pH 7.4, Absorption class by Papp): > 10 ×10⁻⁶ cm/s; Papp at 1 h, 50 μM (in vitro; Caco-2, pH 7.4, Level (order of magnitude) of Papp): ~10 ×10⁻⁶ cm/s; recovery at 90 min, 50 μM (in vitro; [6]): 93.4%; recovery at 90 min, 50 μM (in vitro; [7]): 100% |
| O=c1c(-c2ccc(O)cc2)coc2cc(O[C@@H]3O[C@H](CO)[C@@H](O)[C@H](O)[C@H]3O)ccc12 [Compound 7, daidzin] | 0.4 ± 0.01 ×10⁻⁶ cm/s | 0.37 ± 0.01 ×10⁻⁶ cm/s | 0.92 |  | 99.8% | 98.5% | Absorption class by Papp (Caco-2 cell monolayer): poorly absorbed; Papp at 1 h, 50 μM ([1]; Caco-2, pH 7.4): ~0.1 ×10⁻⁶ cm/s; Reduction of content (fold) [2]: 10 fold; Conversion by HIF ([2]; during the 60 h incubation by HIF): almost completely converted into daidzein (10) |
| COc1ccc(-c2coc3cc(O)ccc3c2=O)cc1 [Compound 12, formononetin] | 30.64 ± 0.07 ×10⁻⁶ cm/s | 26.5 ± 1.1 ×10⁻⁶ cm/s | 0.87 | ~10 ×10⁻⁶ cm/s | 102% | 98% | Papp at 1 h, 50 μM [1, 8]: > 10 ×10⁻⁶ cm/s; Increase of content (fold) [2]: more than 3 fold |
| O=c1c(-c2ccc(O)cc2)coc2c([C@@H]3O[C@H](CO)[C@@H](O)[C@H](O)[C@H]3O)c(O)ccc12 [Compound 4, puerarin] | 0.68 ± 0.02 ×10⁻⁶ cm/s | 0.41 ± 0.01 ×10⁻⁶ cm/s | 0.6 | ~0.1 ×10⁻⁶ cm/s | 96.6% | 95.7% | Absorption class by Papp (Caco-2 cell monolayer): poorly absorbed |
| O=c1c(-c2ccc(O)c(O)c2)coc2c(C3OC(CO)C(O)C(O)C3O)c(O)ccc12 (stereo not drawn) [Compound 1, 3′-hydroxypuerarin] | 0.45 ± 0.02 ×10⁻⁶ cm/s | 0.29 ± 0.01 ×10⁻⁶ cm/s | 0.64 |  | 98.1% | 94.4% | Tmax [4]: 2 h |
| COc1cc(-c2coc3c(C4OC(CO)C(O)C(O)C4O)c(O)ccc3c2=O)ccc1O (stereo not drawn) [Compound 5, 3′-methoxypuerarin] | 0.75 ± 0.09 ×10⁻⁶ cm/s | 0.47 ± 0.03 ×10⁻⁶ cm/s | 0.63 |  | 94.6% | 86.2% | Content remaining ([2]; at 60 h incubation by HIF): ~50% |
| COc1ccc(C2=CC(=O)OC2Cc2ccc(O)cc2)c(OC2OC(CO)C(O)C(O)C2O)c1 (racemic) [Compound 8, (±)-puerol B-2″-O-glucopyranoside] | 1.29 ± 0.28 ×10⁻⁶ cm/s | 1.03 ± 0.09 ×10⁻⁶ cm/s | 0.8 | ~1 ×10⁻⁶ cm/s | 77% | 91.4% |  |
